Reference: US8268821B2, “Methods and compositions” (priority 2003, dated 2012)
Marks after values point to notes of the source that are not given here.

System: cancer-related neuropathic pain
Experiment: Open label dose escalation study of flupirtine, case studies JE and RM
Conditions: for SCORE WALKING / SCORE ENJOYMENT / SCORE TOTAL ACTIVITY / SCORE MOOD / SCORE RELATIONSHIPS / SCORE SLEEP / SCORE GENERAL ACTIVITY: pain interference 1-10; for SCORE WALKING: day 1 baseline 7; for SCORE ENJOYMENT / SCORE TOTAL ACTIVITY / AVERAGE PAIN LAST 24 HOURS: day 1 baseline 8; for SCORE NAUSEA / SCORE UN[…] GAIT: day 1 baseline 2; for SCORE POOR CONCENTRATION / WHO PERFORMANCE STATUS / SCORE SLEEP: day 1 baseline 3; for SCORE DROWSINESS / SCORE POOR APPETITE: day 1 baseline 4; for WORST PAIN SCORE LAST 24 HOURS: day 1 baseline 10; for neuropathic dwascriminant function score: >0 = neuropathic, day 1 baseline 2.448; for freezing pain score / score for increased pain due to touch / score for increased pain due to weather changes / squeezing pain score: day 1 baseline 0; for burning pain score: day 1 baseline 90; for electric pain score / for shooting pain score / numbness score / score for overly sensitive to touch / tingling pain score / unpleasant pain score: day 1 baseline 95; for overwhelming pain score: day 1 baseline 98; for SCORE GENERAL ACTIVITY: day 1 baseline 5
[1] = JE day 5, flupirtine 100 mg qid
[2] = JE day 5, flupirtine 100 mg qid, scale 1-4, day 1 baseline 1
[3] = JE day 5, flupirtine 100 mg qid, scale 1-4
[4] = JE day 5, flupirtine 100 mg qid, scale to 10, day 1 baseline 1
[5] = JE day 5, flupirtine 100 mg qid, scale to 10
[6] = JE day 6, flupirtine 100 mg qid
[7] = JE day 6, flupirtine 100 mg qid, day 1 baseline 1
[8] = JE day 6, flupirtine 100 mg qid, scale 1-4, day 1 baseline 1
[9] = JE day 6, flupirtine 100 mg qid, scale 1-4
[10] = JE day 6, flupirtine 100 mg qid, scale to 10, day 1 baseline 1
[11] = JE day 6, flupirtine 100 mg qid, scale to 10
[12] = JE day 7, flupirtine 100 mg qid
[13] = JE day 7, flupirtine 100 mg qid, day 1 baseline 1
[14] = JE day 7, flupirtine 100 mg qid, scale 1-4, day 1 baseline 1
[15] = JE day 7, flupirtine 100 mg qid, scale 1-4
[16] = JE day 7, flupirtine 100 mg qid, scale to 10, day 1 baseline 1
[17] = JE day 7, flupirtine 100 mg qid, scale to 10
[18] = JE day 8, flupirtine 100 mg qid
[19] = JE day 8, flupirtine 100 mg qid, day 1 baseline 1
[20] = JE day 8, flupirtine 100 mg qid, scale 1-4
[21] = JE day 8, flupirtine 100 mg qid, scale 1-4, day 1 baseline 1
[22] = JE, day after day 8 (discharge), flupirtine 100 mg QID with Oxycontin 40 mg/24 hrs, scale to 10

`CCOC(=O)Nc1ccc(NCc2ccc(F)cc2)nc1N` [flupirtine] was tested. Which “SCORE WALKING” value [1] did it give?
The value was 1.

And the “SCORE ENJOYMENT” value [1]?
Its value is 3.

And the “SCORE TOTAL ACTIVITY” value [1]?
Its value is 1.

And the “SCORE CONSTIPATION” value [2]?
Its value is 4.

What about the “SCORE INDIGESTION” value [2] of the same compound?
Its value is 1.

And the “SCORE NAUSEA” value [3]?
Its value is 1.

What about the “SCORE UN[…] GAIT” value [3] of the same compound?
Its value is 4.

What about the “SCORE POOR CONCENTRATION” value [3] of the same compound?
The value was 4.

What about the “SCORE DROWSINESS” value [3] of the same compound?
The value was 4.

What about the “SCORE POOR APPETITE” value [3] of the same compound?
The value was 4.

And the “LEAST PAIN LAST 24 HRS” value [4]?
The value was 0.

What about the “PAIN SCORE RIGHT NOW” value [4] of the same compound?
Its value is 0.

What about the “AVERAGE PAIN LAST 24 HOURS” value [5] of the same compound?
Its value is 0.

And the “WORST PAIN SCORE LAST 24 HOURS” value [5]?
Its value is 6.

What about the “WHO PERFORMANCE STATUS” value (JE day 6, flupirtine 100 mg qid, 0=fully active, 4=completely disabled) of the same compound?
The value was 3.

And the “neuropathic dwascriminant function score” value [6]?
Its value is −1.048.

What about the freezing pain score [6] of the same compound?
The freezing pain score was 0.

What about the “score for increased pain due to touch” value [6] of the same compound?
Its value is 80.

And the “score for increased pain due to weather changes” value [6]?
Its value is 0.

And the squeezing pain score [6]?
Its squeezing pain score is 0.

And the burning pain score [6]?
The burning pain score was 0.

And the electric pain score [6]?
The electric pain score was 0.

What about the “for shooting pain score” value [6] of the same compound?
The value was 0.

And the numbness score [6]?
The numbness score was 0.

And the “score for overly sensitive to touch” value [6]?
Its value is 0.

What about the tingling pain score [6] of the same compound?
The tingling pain score was 0.

What about the unpleasant pain score [6] of the same compound?
The unpleasant pain score was 0.

What about the overwhelming pain score [6] of the same compound?
The overwhelming pain score was 40.

And the “SCORE MOOD” value [7]?
The value was 1.

And the “SCORE RELATIONSHIPS” value [7]?
Its value is 1.

And the “SCORE SLEEP” value [6]?
The value was 1.

And the “SCORE GENERAL ACTIVITY” value [6]?
The value was 1.

And the “SCORE WALKING” value [6]?
Its value is 1.

What about the “SCORE ENJOYMENT” value [6] of the same compound?
Its value is 1.

And the “SCORE TOTAL ACTIVITY” value [6]?
Its value is 1.

And the “SCORE CONSTIPATION” value [8]?
Its value is 1.

And the “SCORE INDIGESTION” value [8]?
The value was 1.

And the “SCORE NAUSEA” value [9]?
Its value is 1.

And the “SCORE UN[…] GAIT” value [9]?
Its value is 3.

What about the “SCORE POOR CONCENTRATION” value [9] of the same compound?
Its value is 2.

What about the “SCORE DROWSINESS” value [9] of the same compound?
The value was 3.

What about the “SCORE POOR APPETITE” value [9] of the same compound?
The value was 2.

What about the “LEAST PAIN LAST 24 HRS” value [10] of the same compound?
Its value is 0.

And the “PAIN SCORE RIGHT NOW” value [10]?
Its value is 8.

And the “AVERAGE PAIN LAST 24 HOURS” value [11]?
The value was 8.

What about the “WORST PAIN SCORE LAST 24 HOURS” value [11] of the same compound?
Its value is 9.

What about the “WHO PERFORMANCE STATUS” value (JE day 7, flupirtine 100 mg qid, 0=fully active, 4=completely disabled) of the same compound?
The value was 3.

What about the “neuropathic dwascriminant function score” value [12] of the same compound?
The value was −1.408.

And the freezing pain score [12]?
The freezing pain score was 0.

What about the “score for increased pain due to touch” value [12] of the same compound?
Its value is 0.

What about the “score for increased pain due to weather changes” value [12] of the same compound?
The value was 0.

What about the squeezing pain score [12] of the same compound?
Its squeezing pain score is 0.

And the burning pain score [12]?
The burning pain score was 0.

What about the electric pain score [12] of the same compound?
The electric pain score was 0.

What about the “for shooting pain score” value [12] of the same compound?
Its value is 0.

And the numbness score [12]?
The numbness score was 0.

What about the “score for overly sensitive to touch” value [12] of the same compound?
Its value is 0.

And the tingling pain score [12]?
The tingling pain score was 0.

What about the unpleasant pain score [12] of the same compound?
Its unpleasant pain score is 0.

What about the overwhelming pain score [12] of the same compound?
The overwhelming pain score was 0.

What about the “SCORE MOOD” value [13] of the same compound?
The value was 1.

And the “SCORE RELATIONSHIPS” value [13]?
Its value is 1.

What about the “SCORE SLEEP” value [12] of the same compound?
Its value is 1.

What about the “SCORE GENERAL ACTIVITY” value [12] of the same compound?
The value was 1.

And the “SCORE WALKING” value [12]?
The value was 1.

And the “SCORE ENJOYMENT” value [12]?
Its value is 1.

What about the “SCORE TOTAL ACTIVITY” value [12] of the same compound?
The value was 1.

What about the “SCORE CONSTIPATION” value [14] of the same compound?
The value was 1.

What about the “SCORE INDIGESTION” value [14] of the same compound?
The value was 1.

And the “SCORE NAUSEA” value [15]?
The value was 1.

What about the “SCORE UN[…] GAIT” value [15] of the same compound?
The value was 2.

And the “SCORE POOR CONCENTRATION” value [15]?
The value was 1.

What about the “SCORE DROWSINESS” value [15] of the same compound?
The value was 3.

What about the “SCORE POOR APPETITE” value [15] of the same compound?
The value was 3.

What about the “LEAST PAIN LAST 24 HRS” value [16] of the same compound?
The value was 0.

What about the “PAIN SCORE RIGHT NOW” value [16] of the same compound?
Its value is 0.

What about the “AVERAGE PAIN LAST 24 HOURS” value [17] of the same compound?
The value was 0.

And the “WORST PAIN SCORE LAST 24 HOURS” value [17]?
Its value is 4.

And the “WHO PERFORMANCE STATUS” value (JE day 8, flupirtine 100 mg qid, 0=fully active, 4=completely disabled)?
The value was 3.

And the freezing pain score [18]?
Its freezing pain score is 0.

And the “score for increased pain due to touch” value [18]?
The value was 0.

And the “score for increased pain due to weather changes” value [18]?
Its value is 0.

And the squeezing pain score [18]?
Its squeezing pain score is 0.

What about the burning pain score [18] of the same compound?
Its burning pain score is 0.

And the electric pain score [18]?
The electric pain score was 0.

What about the “for shooting pain score” value [18] of the same compound?
Its value is 0.

And the numbness score [18]?
The numbness score was 90.

What about the “score for overly sensitive to touch” value [18] of the same compound?
The value was 0.

What about the tingling pain score [18] of the same compound?
The tingling pain score was 0.

What about the unpleasant pain score [18] of the same compound?
Its unpleasant pain score is 95.

What about the overwhelming pain score [18] of the same compound?
Its overwhelming pain score is 95.

What about the “SCORE MOOD” value [19] of the same compound?
The value was 8.

What about the “SCORE RELATIONSHIPS” value [19] of the same compound?
The value was 1.

What about the “SCORE SLEEP” value [18] of the same compound?
Its value is 10.

What about the “SCORE GENERAL ACTIVITY” value [18] of the same compound?
The value was 1*.

And the “SCORE WALKING” value [18]?
The value was 1*.

And the “SCORE ENJOYMENT” value [18]?
The value was 8.

And the “SCORE TOTAL ACTIVITY” value [18]?
Its value is 1*.

What about the other symptoms hallucinations [20] of the same compound?
Its other symptoms hallucinations is 1-.

What about the “SCORE CONSTIPATION” value [21] of the same compound?
The value was 1*.

What about the “SCORE INDIGESTION” value [21] of the same compound?
Its value is 1.

What about the other symptom twitch [21] of the same compound?
The other symptom twitch was 1-.

What about the “SCORE NAUSEA” value [20] of the same compound?
Its value is 1*.

And the “SCORE POOR CONCENTRATION” value [20]?
Its value is 1*.

What about the “SCORE DROWSINESS” value [20] of the same compound?
Its value is 1*.

And the “SCORE POOR APPETITE” value [20]?
The value was 1*.

And the “PAIN SCORE RIGHT NOW” value (JE day 8, flupirtine 100 mg qid, scale to 10, day 1 baseline 1)?
The value was 9.

What about the “AVERAGE PAIN LAST 24 HOURS” value (JE day 8, flupirtine 100 mg qid, scale to 10) of the same compound?
The value was 7.

And the “WHO performance status score” value (JE, day after day 8 (discharge), flupirtine 100 mg QID with Oxycontin 40 mg/24 hrs, 0=fully active, 4=completely disabled)?
Its value is 2.

What about the “average pain score for the previous 24 hours” value [22] of the same compound?
The value was 0.

And the least pain [22]?
Its least pain is 0.

What about the worst pain [22] of the same compound?
The worst pain was 0.

What about the “WHO PERFORMANCE STATUS” value (RM day 2, flupirtine 100 mg qid, 0=fully active, 4=completely disabled) of the same compound?
The value was 3.
